Test results reported in US4816447A, “Anti-viral guanine compounds” (priority 1984, dated 1989).

Tests used:
HSV-1 PAA ®1 [1] = settings: HSV-1 PAA R1
[2] = system: Herpes simplex virus type 1 (Strain S); assay: Orofacial Herpes simplex virus type 1 infection in mice, therapeutic oral treatment (Table XIV); format: in vivo, Herpes simplex virus type 1; HRS (hairless) mice; settings: for Lesion Incidence (%) / Lesion Incidence (number/Total) / Lesion Severity (scale 0 to 4): 12.5 mg/kg/day oral
Method: Twenty gram HRS (hairless) mice were infected on the abraded orofacial area with Herpes simplex virus type 1 (Strain S).
a. Groups of 10 infected animals were treated twice daily by oral gavage for up to 7 days with the compound of formula II at 12.5 mg/kg/day, starting 3, 8, 12, 24, 48, 72, or 96 hours after infection. […]
At 7 days after initiation of infection, the extent of lesion development in the orofacial area was measured on a scale of 0 (no lesions) to 4 (massive lesions over the entire snout).

HSV-1 (383R1) [3] = format: cell-based; settings: HSV-1 (383R1) vs wild type
[4] = target: thymidine kinase, isolated from HSV1-infected HeLa cells (Human herpesvirus 1, UniProt P0DTH5); assay: Competition between thymidine and acycloguanosine or compound of formula II for phosphorylation by the virus-induced thymidine kinase; format: biochemical; settings: for Percent monophosphate: 1200 min
HSV-1 WT = assay: 50% plaque reduction of HSV-1 wild type in 3T3 TK- and 3T3 TK-/TK+HSV cells (Table VIII); settings: for EC50: Human alphaherpesvirus 1, in Mus musculus, read-out: Antiviral Concentration, 50% plaque reduction
HSV-1 PAA ®1 [5] = assay: microbe, parasite or virus in culture; settings: Human alphaherpesvirus 1, read-out: ED50
Cytomegalovirus = Cytomegalovirus plaque reduction assay on human MRC-5 monolayers; format: cell-based, Cytomegalovirus (Towne Strain); human MRC-5 cells
Method: The compound of formula II was effective in suppressing cytomegalovirus plaque formation on MRC-5 cell monolayers using 0.1 to 0.6 μg/ml.
^d Plaque reduction assay on human MRC5 cell monolayers

HSV-1 (383R1) [6] = assay: Phosphorylation capacity of HSV-1 (383R1); format: biochemical
[7] = system: HSV-1 wild type (Schooler); assay: Protection of mice against intraperitoneal infection with HSV-1 (Table IX); format: in vivo, HSV-1; mice; settings: for Mean Survival Time (± SD): HSV-1, s.c. twice daily, 4 days; for protective efficacy over a 10^6 -fold virus challenge range: HSV-1 or HSV-1 (383R1)
Method: 1. […] Groups of mice infected intraperitoneally with increasing doses of HSV-1 or HSV-1 (383R1) were treated twice daily subcutaneously for 4 days with either the Cyclic Monophosphate or the compound of Formula II. Mean survival times of treated mice were compared.

[8] = target: HSV1-induced thymidine kinase (Human alphaherpesvirus 1 strain 17, UniProt P0DTH5); assay: Kinetic parameters with purified viral thymidine kinase; format: biochemical; settings: compound of formula II to acycloguanosine
HSV-1 = assay: Intracerebral HSV-1 infection in weanling mice, subcutaneous treatment (Table VI); format: in vivo, HSV-1; ICR/Ha weanling mice
[9] = system: feline rhinotracheitis virus; assay: Antiviral activity against feline rhinotracheitis virus; format: cell-based; settings: data not shown, read-out: ED50 (the source's name)
equine herpes virus = assay: Antiviral activity against equine herpes virus; format: cell-based; settings: data not shown, read-out: ED50 (the source's name)
HSV1 (Strain Schooler) = assay: In vivo assay, intraperitoneal HSV1 infection of mice, subcutaneous treatment (Table IV); design: species or system HSV1; ICR/Ha mice; settings: for Percent Survival: 15 days
Method: Twenty gram ICR/Ha mice were infected with approximately 100 lethal doses (100LD50) of HSV1 (Strain Schooler) by the intraperitoneal route. Groups of 10 infected animals were treated twice daily for four days starting immediately after infection by subcutaneous injection at final daily doses of 50, 12.5, 3.1, 0.8, 0.2, 0.05 and 0.0125 mg/kg of potassium 9-(1,3-dihydroxy-2-propoxymethyl)guanine cyclic monophosphate. The mice were observed daily for 15 days at the same time each day and the day of death recorded for each animal.

vesicular stomatitis = format: cell-based
HSV1 = assay: In vitro assay, viral cytopathology of HSV1 in primary rabbit kidney cells; format: cell-based; settings: Human alphaherpesvirus 1; days 5 and 7; read-out: Min. Effective Dose against HSV1
influenza A = assay: RNA virus replication, influenza A; format: cell-based
HSV2 = assay: In vitro assay, viral cytopathology of HSV2 in primary rabbit kidney cells; format: cell-based; settings: Human alphaherpesvirus 2; days 5 and 7; read-out: Min. Effective Dose against HSV2
[10] = system: primary rabbit kidney cell cultures; assay: Toxicity controls in primary rabbit kidney cell cultures; format: cell-based; settings: at 100 μg/ml
polio = format: cell-based

thymidine kinase, isolated from HSV1-infected HeLa cells, sequence (P0DTH5 whole entry): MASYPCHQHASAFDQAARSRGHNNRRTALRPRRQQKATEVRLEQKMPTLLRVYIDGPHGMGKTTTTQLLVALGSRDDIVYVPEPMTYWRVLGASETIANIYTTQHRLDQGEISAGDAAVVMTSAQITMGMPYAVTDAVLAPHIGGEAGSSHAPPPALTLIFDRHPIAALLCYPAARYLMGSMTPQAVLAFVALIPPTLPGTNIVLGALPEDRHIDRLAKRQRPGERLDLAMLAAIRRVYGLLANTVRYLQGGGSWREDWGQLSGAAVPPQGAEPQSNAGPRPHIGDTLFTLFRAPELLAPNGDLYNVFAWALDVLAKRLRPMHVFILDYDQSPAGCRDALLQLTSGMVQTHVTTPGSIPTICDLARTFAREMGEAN
HSV1-induced thymidine kinase, sequence (P0DTH5 whole entry): as above

## Nc1nc2c(ncn2COCCO)c(=O)[nH]1 [Acycloguanosine, 9-(2-hydroxyethoxymethyl)guanine, reference compound]
HSV-1 PAA ®1 [1]
  Sensitivity (S) or Resistance (R): R
[2]; start 3 hours post infection
  Lesion Incidence (%): 100%
  Lesion Incidence (number/Total): 10/10
  Lesion Severity (scale 0 to 4): 2.80
[2]; start 8 hours post infection
  Lesion Incidence (%): 100%
  Lesion Incidence (number/Total): 10/10
  Lesion Severity (scale 0 to 4): 2.95
[2]; start 12 hours post infection
  Lesion Incidence (%): 90%
  Lesion Incidence (number/Total): 9/10
  Lesion Severity (scale 0 to 4): 3.30
[2]; start 24 hours post infection
  Lesion Incidence (%): 90%
  Lesion Incidence (number/Total): 9/10
  Lesion Severity (scale 0 to 4): 2.85
[2]; start 48 hours post infection
  Lesion Incidence (%): 80%
  Lesion Incidence (number/Total): 8/10
  Lesion Severity (scale 0 to 4): 2.85
[2]; start 72 hours post infection
  Lesion Incidence (%): 90%
  Lesion Incidence (number/Total): 9/10
  Lesion Severity (scale 0 to 4): 3.60
[2]; start 96 hours post infection
  Lesion Incidence (%): 100%
  Lesion Incidence (number/Total): 7/7
  Lesion Severity (scale 0 to 4): 4.00
[2]; all start times
  incidence of lesions vs placebo: None of the acycloguanosine treated groups had a significantly lower incidence of lesions
[2]; only start 3 hours after infection
  lesion scores vs placebo: statistically different in lesion score

## Nc1nc2c(ncn2COC(CO)CO)c(=O)[nH]1 [Compound of Formula II, 9-(1,3-Dihydroxy-2-propoxymethyl)guanine]
HSV-1 (383R1) [3]
  less susceptible than wild type: approximately 100 fold
[4]; large excess of thymidine
  phosphorylation in presence of a large excess of thymidine: is phosphorylated by the viral thymidine kinase even in the presence of a large excess of thymidine
[4]; plus 2.5 mM thymidine
  Percent monophosphate: 23%
[4]; without thymidine
  Percent monophosphate: 93%
HSV-1 WT
  EC50: 0.06 µg/mL
HSV-1 PAA ®1 [5]
  EC50: 0.1 µg/mL
Cytomegalovirus
  calculated average relative potency to acycloguanosine (95% CI): 28.6
HSV-1 (383R1) [6]
  phosphorylation by HSV-1 (383R1): incapable of phosphorylation
[7]
  Mean Survival Time (± SD): 12.55 (0.88)
  protective efficacy over a 10^6 -fold virus challenge range: no significant difference in protective efficacy
[2]; start 3 hours post infection
  Lesion Incidence (%): 60%
  Lesion Incidence (number/Total): 6/10
  Lesion Severity (scale 0 to 4): 1.30
[2]; start 8 hours post infection
  Lesion Incidence (%): 30%
  Lesion Incidence (number/Total): 3/10
  Lesion Severity (scale 0 to 4): 0.55
[2]; start 12 hours post infection
  Lesion Incidence (%): 50%
  Lesion Incidence (number/Total): 5/10
  Lesion Severity (scale 0 to 4): 0.55
[2]; start 24 hours post infection
  Lesion Incidence (%): 40%
  Lesion Incidence (number/Total): 4/10
  Lesion Severity (scale 0 to 4): 0.40
[2]; start 48 hours post infection
  Lesion Incidence (%): 90%
  Lesion Incidence (number/Total): 9/10
  Lesion Severity (scale 0 to 4): 1.50
[2]; start 72 hours post infection
  Lesion Incidence (%): 80%
  Lesion Incidence (number/Total): 8/10
  Lesion Severity (scale 0 to 4): 2.55
[2]; start 96 hours post infection
  Lesion Incidence (%): 100%
  Lesion Incidence (number/Total): 10/10
  Lesion Severity (scale 0 to 4): 3.85
[2]; start 8, 12 and 24 hours after infection
  incidence of lesion development vs placebo: statistically significant lower incidence of lesion development
[2]; start as late as 72 hours after infection
  lesion scores vs placebo: statistically significant lower lesion scores
[8]
  relative efficiency as substrate (Vmax /Km) vs acycloguanosine: 30 to 1

## Nc1nc2c(ncn2COC2COP(=O)(O)OC2)c(=O)[nH]1 (centres unmarked) [Cyclic Monophosphate, Potassium 9-(1,3-dihydroxy-2-propoxymethyl)guanine cyclic monophosphate]
HSV-1 WT
  susceptibility of HSV-1 greater than HSV-1 (383R1): about 5 fold
  EC50: 0.2 µg/mL
HSV-1 PAA ®1 [5]
  EC50: 3.2 µg/mL
HSV-1; Human alphaherpesvirus 1, sc, intracerebral infection, subcutaneous treatment, read-out: Min. Effective Dose
  minimal effective dose: 0.8 mg/kg/day
HSV-1; intracerebral
  efficacy relative to acyclovir by minimum effective dose: consistently more efficacious than acyclovir
[9]
  EC50: ~1 µg/mL
Equine herpes virus
  EC50: ~1 µg/mL
HSV1 (Strain Schooler); Expt. 1, 0.2 mg/kg/day s.c.
  Ave. Survival Time: 13.5 days
  Percent Survival: 70%
HSV1 (Strain Schooler); Expt. 1, 0.8 mg/kg/day s.c.
  Ave. Survival Time: 10.5 days
  Percent Survival: 40%
HSV1 (Strain Schooler); Expt. 1, 3.1 mg/kg/day s.c.
  Ave. Survival Time: 10.7 days
  Percent Survival: 20%
HSV1 (Strain Schooler); Expt. 1, 12.5 mg/kg/day s.c.
  Ave. Survival Time: 19.5 days
  Percent Survival: 100%
HSV1 (Strain Schooler); Expt. 1, 50 mg/kg/day s.c.
  Ave. Survival Time: 19.5 days
  Percent Survival: 100%
HSV1 (Strain Schooler); Expt. 2, 0.0125 mg/kg/day s.c.
  Ave. Survival Time: 6.3 days
  Percent Survival: 10%
HSV1 (Strain Schooler); Expt. 2, 0.05 mg/kg/day s.c.
  Ave. Survival Time: 6.0 days
  Percent Survival: 0%
HSV1 (Strain Schooler); Expt. 2, 0.2 mg/kg/day s.c.
  Ave. Survival Time: 8.3 days
  Percent Survival: 30%
HSV1 (Strain Schooler); Expt. 2, 0.8 mg/kg/day s.c.
  Ave. Survival Time: 7.4 days
  Percent Survival: 0%
HSV1 (Strain Schooler); Expt. 2, 3.1 mg/kg/day s.c.
  Ave. Survival Time: 11.5 days
  Percent Survival: 50%
HSV1 (Strain Schooler); Expt. 2, 12.5 mg/kg/day s.c.
  Ave. Survival Time: 15.0 days
  Percent Survival: 60%
Vesicular stomatitis
  effect on RNA virus replication: not effective
HSV1
  minimal effective concentration: 12.5 to 25 µg/mL
Influenza A
  effect on RNA virus replication: not effective
HSV2
  minimal effective concentration: 50 to 100 µg/mL
[7]
  Mean Survival Time (± SD): 12.65 (0.84)
  protective efficacy over a 10^6 -fold virus challenge range: no significant difference in protective efficacy
[10]
  Toxicity: Not tox.
polio
  effect on RNA virus replication: not effective
